Data as given in US12421243B2, “Pharmaceutically effective compounds inhibiting selectively the myosin 2 isoforms” (PRINTNET KERESKEDELMI ÉS SZOLGÁLTATÓ KFT., priority 2018, dated 2025).

Columns and labels:
[1] = biological target: T1, isolated porcine cardiac ventricular myocardium (cardiac) (Sus scrofa, UniProt P79293); test: actomyosin steady state ATPase measurement, cardiac myosin; assay type: biochemical; details: for IC50: concentration required for semi-maximal inhibition of ATPase; for % inhibition. complete cardiac: maximum value of inhibition of ATPase activity; for inhibition at 5 µM: read-out: % inhibition at 5 μM (or 10 μM if racemate) cardiac, 5 μM (10 μM if racemate); for inhibition at 5 µM / inhibition at 50 µM: ATPase activity; for inhibition at 50 µM: read-out: % inhibition at 50 μM (or 100 μM if racemate) cardiac, 50 μM (100 μM if racemate); for Inhibition (%) cardiac: maximum inhibition, compounds in IC50 range 3-6 μM
T1 construct: isolated porcine cardiac ventricular myocardium (cardiac); from tissue; host or cells: porcine cardiac ventricle
From the text: (§1) […]; (ii) the concentration required for semi-maximal inhibition.

[2] = biological target: recombinant Dictyostelium miozin (Dictyostelium) (Dictyostelium discoideum, UniProt P08799); test: actomyosin steady state ATPase measurement, Dictyostelium myosin; assay type: biochemical; details: for IC50: concentration required for semi-maximal inhibition of ATPase, read-out: IC50 (μM) Dicty; for % inhibition. complete Dicty: maximum value of inhibition of ATPase activity; for inhibition at 5 µM: read-out: % inhibition at 5 μM (or 10 μM if racemate) Dicty; for inhibition at 50 µM: read-out: % inhibition at 50 μM (or 100 μM if racemate) Dicty
From the text: as §1

[3] = system: isolated rabbit skeletal muscle myosin (skeletal); test: actomyosin steady state ATPase measurement, skeletal muscle myosin; assay type: biochemical; details: for % inhibition at 5 μM (or 10 μM if racemate) Skeletal: 5 μM (10 μM if racemate); for % inhibition at 5 μM (or 10 μM if racemate) Skeletal / % inhibition at 50 μM (or 100 μM if racemate) Skeletal: ATPase activity; for % inhibition at 50 μM (or 100 μM if racemate) Skeletal: 50 μM (100 μM if racemate); for IC50: concentration required for semi-maximal inhibition of ATPase; for % inhibition. complete Skeletal: maximum value of inhibition of ATPase activity
From the text: as §1

[4] = biological target: isolated smooth muscle myosin (UniProt P10587); assay type: biochemical, chamois; details: for % inhibition at 5 μM (or 10 μM if racemate) Smooth: 5 μM (10 μM if racemate); for % inhibition at 5 μM (or 10 μM if racemate) Smooth / % inhibition at 50 μM (or 100 μM if racemate) Smooth: ATPase activity; for % inhibition at 50 μM (or 100 μM if racemate) Smooth: 50 μM (100 μM if racemate); for % inhibition. complete Smooth: maximum value of inhibition of ATPase activity
[5] = biological target: isolated smooth muscle myosin (UniProt P10587); assay type: biochemical, chamois; details: concentration required for semi-maximal inhibition of ATPase
From the text: (ii) the concentration required for semi-maximal inhibition.

recombinant Dictyostelium miozin (Dictyostelium), sequence (P08799 whole entry): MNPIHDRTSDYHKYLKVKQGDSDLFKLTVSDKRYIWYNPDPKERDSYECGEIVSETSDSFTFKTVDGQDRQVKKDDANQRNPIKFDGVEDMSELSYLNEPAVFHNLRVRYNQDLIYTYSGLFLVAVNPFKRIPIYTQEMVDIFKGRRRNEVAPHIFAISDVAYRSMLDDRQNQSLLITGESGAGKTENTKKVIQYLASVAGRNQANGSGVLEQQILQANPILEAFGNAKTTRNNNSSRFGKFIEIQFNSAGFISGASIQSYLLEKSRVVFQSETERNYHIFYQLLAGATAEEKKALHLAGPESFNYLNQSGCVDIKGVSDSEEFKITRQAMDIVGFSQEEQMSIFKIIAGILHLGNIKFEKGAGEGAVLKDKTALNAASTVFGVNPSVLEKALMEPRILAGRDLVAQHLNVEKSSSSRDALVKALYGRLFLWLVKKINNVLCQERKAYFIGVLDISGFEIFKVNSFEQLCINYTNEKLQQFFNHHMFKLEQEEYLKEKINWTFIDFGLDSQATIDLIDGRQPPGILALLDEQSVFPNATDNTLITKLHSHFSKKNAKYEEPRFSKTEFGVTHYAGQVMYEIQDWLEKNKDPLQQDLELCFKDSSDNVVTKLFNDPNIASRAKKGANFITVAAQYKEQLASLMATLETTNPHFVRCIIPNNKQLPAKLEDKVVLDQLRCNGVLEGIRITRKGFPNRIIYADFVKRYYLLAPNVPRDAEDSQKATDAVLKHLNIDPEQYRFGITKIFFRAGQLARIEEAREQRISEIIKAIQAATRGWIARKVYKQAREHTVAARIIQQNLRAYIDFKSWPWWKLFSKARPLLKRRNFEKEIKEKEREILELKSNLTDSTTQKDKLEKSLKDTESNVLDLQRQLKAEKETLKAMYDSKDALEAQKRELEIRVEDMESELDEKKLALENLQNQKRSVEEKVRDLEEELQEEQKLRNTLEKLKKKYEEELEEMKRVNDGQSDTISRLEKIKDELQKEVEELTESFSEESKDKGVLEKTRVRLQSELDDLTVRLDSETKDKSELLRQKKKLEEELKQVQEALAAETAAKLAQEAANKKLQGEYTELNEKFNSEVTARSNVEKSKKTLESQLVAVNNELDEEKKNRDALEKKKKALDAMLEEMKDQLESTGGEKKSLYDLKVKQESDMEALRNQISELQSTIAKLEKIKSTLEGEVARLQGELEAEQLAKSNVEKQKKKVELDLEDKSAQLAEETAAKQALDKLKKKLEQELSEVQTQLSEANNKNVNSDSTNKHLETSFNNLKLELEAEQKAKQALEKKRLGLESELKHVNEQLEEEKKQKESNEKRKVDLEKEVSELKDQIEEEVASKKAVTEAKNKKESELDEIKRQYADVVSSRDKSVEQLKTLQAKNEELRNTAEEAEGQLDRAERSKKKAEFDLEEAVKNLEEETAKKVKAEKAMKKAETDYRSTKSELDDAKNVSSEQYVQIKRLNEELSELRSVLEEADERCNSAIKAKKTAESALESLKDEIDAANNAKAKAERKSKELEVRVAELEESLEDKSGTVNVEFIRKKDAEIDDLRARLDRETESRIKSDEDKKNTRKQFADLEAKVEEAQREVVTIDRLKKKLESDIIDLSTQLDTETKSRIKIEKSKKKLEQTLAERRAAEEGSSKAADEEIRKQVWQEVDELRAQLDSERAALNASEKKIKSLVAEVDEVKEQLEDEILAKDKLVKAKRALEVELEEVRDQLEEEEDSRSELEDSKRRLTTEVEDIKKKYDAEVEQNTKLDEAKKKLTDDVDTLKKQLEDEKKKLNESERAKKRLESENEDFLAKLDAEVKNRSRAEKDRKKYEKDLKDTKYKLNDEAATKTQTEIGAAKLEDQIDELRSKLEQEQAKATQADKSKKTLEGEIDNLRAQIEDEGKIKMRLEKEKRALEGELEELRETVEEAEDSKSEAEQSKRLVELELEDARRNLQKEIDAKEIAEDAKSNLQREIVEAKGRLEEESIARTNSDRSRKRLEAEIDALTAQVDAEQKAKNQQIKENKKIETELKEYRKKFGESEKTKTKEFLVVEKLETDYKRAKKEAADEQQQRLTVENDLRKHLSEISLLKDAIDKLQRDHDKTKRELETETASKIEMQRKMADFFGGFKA
isolated smooth muscle myosin, sequence (P10587 whole entry): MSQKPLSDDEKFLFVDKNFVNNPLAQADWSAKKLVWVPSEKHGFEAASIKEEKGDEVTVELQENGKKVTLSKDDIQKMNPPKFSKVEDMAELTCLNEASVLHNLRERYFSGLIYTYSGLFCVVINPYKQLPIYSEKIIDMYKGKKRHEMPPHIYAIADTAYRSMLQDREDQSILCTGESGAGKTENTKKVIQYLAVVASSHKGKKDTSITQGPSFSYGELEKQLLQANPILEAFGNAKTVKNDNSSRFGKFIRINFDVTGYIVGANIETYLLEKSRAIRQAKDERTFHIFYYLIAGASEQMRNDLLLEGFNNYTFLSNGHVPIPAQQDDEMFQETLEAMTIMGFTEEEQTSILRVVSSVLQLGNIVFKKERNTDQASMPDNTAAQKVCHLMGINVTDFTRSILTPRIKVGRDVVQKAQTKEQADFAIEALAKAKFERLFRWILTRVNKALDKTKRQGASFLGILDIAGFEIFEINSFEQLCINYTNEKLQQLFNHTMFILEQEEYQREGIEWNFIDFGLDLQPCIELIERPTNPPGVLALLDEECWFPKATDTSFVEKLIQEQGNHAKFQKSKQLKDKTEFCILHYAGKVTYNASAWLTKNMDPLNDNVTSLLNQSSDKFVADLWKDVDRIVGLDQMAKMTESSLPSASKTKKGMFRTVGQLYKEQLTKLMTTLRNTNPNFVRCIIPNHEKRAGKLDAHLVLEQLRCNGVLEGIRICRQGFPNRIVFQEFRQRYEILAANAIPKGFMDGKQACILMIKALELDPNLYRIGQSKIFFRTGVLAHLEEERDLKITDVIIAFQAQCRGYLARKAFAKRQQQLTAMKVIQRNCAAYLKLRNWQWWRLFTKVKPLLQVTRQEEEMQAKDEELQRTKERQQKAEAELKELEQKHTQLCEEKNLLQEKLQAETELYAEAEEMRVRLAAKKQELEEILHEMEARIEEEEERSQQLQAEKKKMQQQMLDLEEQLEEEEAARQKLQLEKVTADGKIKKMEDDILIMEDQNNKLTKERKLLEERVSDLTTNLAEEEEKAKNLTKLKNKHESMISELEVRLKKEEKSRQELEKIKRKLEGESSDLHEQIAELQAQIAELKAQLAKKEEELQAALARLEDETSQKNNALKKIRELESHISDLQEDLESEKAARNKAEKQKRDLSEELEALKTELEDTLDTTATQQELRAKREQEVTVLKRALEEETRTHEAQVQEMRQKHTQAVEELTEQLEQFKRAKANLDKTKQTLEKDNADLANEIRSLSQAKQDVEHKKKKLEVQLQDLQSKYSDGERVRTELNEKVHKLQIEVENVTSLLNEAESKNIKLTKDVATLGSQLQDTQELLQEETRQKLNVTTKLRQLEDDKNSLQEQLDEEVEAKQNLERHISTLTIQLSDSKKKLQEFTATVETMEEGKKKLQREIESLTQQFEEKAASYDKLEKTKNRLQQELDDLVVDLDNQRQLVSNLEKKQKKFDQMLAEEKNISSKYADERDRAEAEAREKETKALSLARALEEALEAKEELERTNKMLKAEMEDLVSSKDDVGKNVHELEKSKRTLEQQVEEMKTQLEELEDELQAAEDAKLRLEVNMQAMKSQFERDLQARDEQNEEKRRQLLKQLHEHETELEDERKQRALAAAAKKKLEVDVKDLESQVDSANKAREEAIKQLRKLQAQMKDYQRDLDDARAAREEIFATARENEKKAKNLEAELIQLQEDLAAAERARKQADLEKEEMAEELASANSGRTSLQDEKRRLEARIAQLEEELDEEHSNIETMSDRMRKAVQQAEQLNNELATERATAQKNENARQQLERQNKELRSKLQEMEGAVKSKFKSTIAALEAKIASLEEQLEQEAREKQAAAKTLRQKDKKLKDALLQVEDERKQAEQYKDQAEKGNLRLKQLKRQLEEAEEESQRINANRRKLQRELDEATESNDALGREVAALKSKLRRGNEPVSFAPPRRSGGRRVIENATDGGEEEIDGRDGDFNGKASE

Row | SMILES | IC50 [1] [µM] | % inhibition. complete cardiac [1] [%] | inhibition at 5 µM [1] [%] | inhibition at 50 µM [1] [%] | IC50 [2] [µM] | % inhibition. complete Dicty [2] [%] | inhibition at 5 µM [2] [%] | inhibition at 50 µM [2] [%] | % inhibition at 5 μM (or 10 μM if racemate) Skeletal [3] [%] | % inhibition at 50 μM (or 100 μM if racemate) Skeletal [3] [%] | IC50 [3] [µM] | % inhibition. complete Skeletal [3] [%] | Inhibition (%) cardiac [1] [%] | % inhibition at 5 μM (or 10 μM if racemate) Smooth [4] [%] | % inhibition at 50 μM (or 100 μM if racemate) Smooth [4] [%] | % inhibition. complete Smooth [4] [%] | IC50 [5] [µM] | Inhibition (%) smooth ([4]; maximum inhibition, compounds in IC50 range 1-5 μM) [%] | Inhibition (%) skeletal ([3]; maximum inhibition, compounds in IC50 range 1-2 μM) [%]
1 | Cc1cc2c(s1)N=C1N(c3ccc(N(C)C)cc3)CCC1(O)C2=O (stereo not shown) [Compound 250, 12-[4-(Dimethylamino)phenyl]-9-hydroxy-5-methyl-4-thia-2,12-diazatricyclo[7.3.0.0^3,7]dodeca-1,3(7),5-trien-8-one] | 9 | 76 | 26 | 64 | 18 | 68 | 15 | 50 | 93 | 98 | 0.3 | 99 | – | – | – | – | – | – | –
2 | O=C1c2ccsc2N=C2NCC[C@@]12O [Compound 207, (9S)-9-Hydroxy-4-thia-2,12-diazatricyclo[7.3.0.0^3,7]dodeca-1,3(7),5-trien-8-one] | 3.7 | 8 | 4 | 7 | > 100 | – | 0 | 5 | 7 | 14 | 5.8 | 15 | 8 | 7 | 6 | 7 | 1 | – | –
3 | Cc1ccc(N2CCC3(O)C(=O)c4ccncc4N=C23)cc1 (stereo not shown) [Compound 247, 1-[4-(Methyl)phenyl]-3a-hydroxy-1H,2H,3H,3aH,4H-pyrrolo[2,3-b]1,7-naphthyridin-4-one] | 31 | 70 | 9 | 43 | 71 | 54 | 4 | 22 | 74 | 96 | 1.7 | 99 | – | 3 | 15 | 29 | 44 | – | –
4 | CN(C)c1ccc(N2CCC3(O)C(=O)c4ccncc4N=C23)cc1 (stereo not shown) [Compound 251, 1-[4-(Dimethylamino)phenyl]-3a-hydroxy-1H,2H,3H,3aH,4H-pyrrolo[2,3-b]1,7-naphthyridin-4-one] | 6 | 15 | 6 | 13 | > 100 | – | 1 | 1 | 47 | 85 | 4.8 | 93 | 15 | 0 | 25 | 100 | > 100 | – | –
5 | Cc1cc2c(s1)N=C1NCCC1(O)C2=O (stereo not shown) [Compound 231, 9-Hydroxy-5-methyl-4-thia-2,12-diazatricyclo[7.3.0.0^3,7]dodeca-1,3(7),5-trien-8-one] | 1 | – | 6 | 5 | > 100 | – | 4 | 0 | 5 | 7 | 1.4 | 7 | – | 7 | 2 | 5 | 1 | 5 | 7
